Read-outs that look alike come from different tables or passages of the source.
How the values were obtained:
[1] = molecular target: T1, TACC3 (Homo sapiens, UniProt Q9Y6A5); test: Cellular thermal shift assay (CETSA) in intact JIMT-1 cells; assay type: binding; parameters: endogenous in cells; host or cells: JIMT-1; settings: 1 μM, 6 h
Description: Protein thermal melting curves are also showing a thermal shift between vehicle and compound 5 treated band intensities. This interaction was also validated with isothermal titration calorimetry (ITC). […] DARTS is a label free-strategy to identify potential direct protein targets for small molecules and is based on stabilization and protection from proteolysis of the target protein upon binding to small molecules (Lomenick, Jung et al. 2011, Pai, Lomenick et al. 2015).
After treatment, cell pellets were resuspended in Tris-buffered saline (TBS) containing protease and phosphatase inhibitors. The cell suspension was divided into 6 PCR tubes and heated for 5 min to 45, 46, 47, 48, 49, 50° C. Subsequently, cells were lysed by three repeated freeze-thaw cycles with liquid nitrogen. Soluble proteins were collected with centrifugation at 20,000 g for 20 min at 4° C. and analyzed by sodium dodecyl sulfate polyacrylamide gel electrophoresis (SDS-PAGE) followed by western blot analysis.

[2] = tested on: CT26; settings: 25-50 mg/kg daily and orally
Method: (§1) Female nude mice and Balb/c mice were injected with human colon carcinoma cell line, HCT-116, and murine colon carcinoma cell line, CT26, respectively, into flank region of mice.
(§2) 4×10^6 HCT-116 and 1×10^6 cells were prepared either in matrigel:PBS or in PBS, respectively, and injected subcutaneously into flank region of mice. […] Mice body weight was measured regularly.

[3] = tested on: HCT-116; settings: 25-50 mg/kg daily and orally
Method: as §1, §2

[4] = molecular target: CYP2C9 (Homo sapiens, UniProt P11712); settings: read-out: IC50 CYP2C9; human liver microsomes
[5] = Stability in human liver microsomes; assay type: in vitro ADME
[6] = molecular target: T1, TACC3; test: Drug affinity responsive target stability (DARTS) with JIMT-1 cell protein extracts; assay type: binding; parameters: endogenous in cells; host or cells: JIMT-1; settings: 10 μM
Description: (§3) DARTS is a label free-strategy to identify potential direct protein targets for small molecules and is based on stabilization and protection from proteolysis of the target protein upon binding to small molecules (Lomenick, Jung et al. 2011, Pai, Lomenick et al. 2015).

[7] = tested on: MCF-12A; test: Cell viability of normal breast epithelial cells; assay type: cell-based, human; settings: 5, 10 μM
Method: Next, the specificity of compound 5 towards cancer cell lines over normal cells were tested. […] To test the transforming potential of TACC3 and dependency of cells to TACC3 to survive, we performed a clonogenic growth assay in MCF-12A cells after overexpressing TACC3. […] To exclude the possibility that the differences we observed between cancer and normal cells are due to the differences in the proliferation rates of these cells, we calculated their doubling times.

[8] = Kinetic solubility in sodium phosphate buffer; assay type: physicochemical; settings: pH 7.4, 25° C., 2 h
[9] = Method: Mice body weight was measured regularly, and organs were collected for determination of possible toxicity.
[10] = tested on: JIMT-1, MDA-MB-436, MDA-MB-157 and BT-474 T-DM1R cell lines; test: Cell viability (SRB) of breast cancer cell lines, three TACC3 inhibitors compared; assay type: cell-based, human; settings: all cell lines tested, 72 hours
Method: JIMT-1, MDA-MB-436, MDA-MB-157 and BT-474 T-DM1R cell lines were tested with respect to their response to these three drugs. […] Although higher KHS101 doses was included, which were used by others (Campo & Breuer, 2018), an induction of these markers was only observed at very high doses.

[11] = tested on: RT112 and RT4; test: Cell viability (SRB) of FGFR3-TACC3 fusion expressing cell lines; assay type: cell-based, human; settings: both models RT112 and RT4, 3 days
Method: KHS101 (Sigma Aldrich) and SPL-B (Axon MedChem, VA, USA) were dissolved in 100% DMSO to yield a stock concentration of 50 mM. Newly synthesized molecules were dissolved in 100% DMSO to yield a stock concentration of 10 mM. […] Cell viability was measured 72 hours after treatment with Sulforhodamine B (SRB, Sigma Aldrich) assay as recommended by the manufacturer.

[12] = Stability in mouse liver microsomes; assay type: in vitro ADME
[13] = tested on: 4T1-Luc2; test: 4T1-Luc2 lung metastasis model; assay type: in vivo, mice
Method: Next, to examine the effects of TACC3 inhibition on metastatic growth, an aggressive murine mammary tumor cells, 4T1-Luc2 (luciferase labelled), were injected intravenously to immunocompetent female mice. […] Metastatic outgrowth was monitored with in vivo imaging system (IVIS) by measuring bioluminescence.
Highly aggressive and metastatic 4T1-Luc2 (luciferase labelled) cells were prepared in PBS as 1×10^6 cells/mouse and injected intravenously to Balb/c female mice. Metastasis development was monitored using in vivo imaging system (IVIS) and bioluminescence was quantified regularly. […] Survival was calculated when mice died.

[14] = molecular target: T1, TACC3; test: Isothermal titration calorimetry (ITC) of TACC3 into compound 5; assay type: binding; parameters: purchased Origene TP310754; settings: 25° C.
Method: as §3
Titrations were carried out using Microcal 200 equipment (GE Healthcare, Austria) at 25° C. For each titration, 10 injections were made with 6 min spacing. The reference power was set at 2 μcal/sec, and the sample cell was continuously stirred at 500 rpm. In order to assess the binding efficiency between drug and protein, background data obtained by protein injected into buffer alone was subtracted from the experimental isotherms. The data was analyzed using Origin 7 Software provided along with the ITC200, and binding parameters such as association constant (Ka), number of binding sites (N) and enthalpy (ΔH) were calculated.

[15] = tested on: JIMT-1 cells; test: JIMT-1 cell growth inhibition / cell viability (SRB assay); assay type: cell-based; settings: Homo sapiens
Method: The ability of the compounds of the present disclosure to treat TACC3-mediated cancers, or associated symptoms or complications thereof, was determined using the following procedures. The compounds of the present disclosure were tested for their activity against cell death induction using a JIMT-1 cell line, which was a cell line having high level of TACC3. The concentration of each compound that was required for half-maximal inhibition of cell proliferation was calculated by a GraphPad Prism (GraphPad Software).

CYP2C9, sequence (P11712 whole entry): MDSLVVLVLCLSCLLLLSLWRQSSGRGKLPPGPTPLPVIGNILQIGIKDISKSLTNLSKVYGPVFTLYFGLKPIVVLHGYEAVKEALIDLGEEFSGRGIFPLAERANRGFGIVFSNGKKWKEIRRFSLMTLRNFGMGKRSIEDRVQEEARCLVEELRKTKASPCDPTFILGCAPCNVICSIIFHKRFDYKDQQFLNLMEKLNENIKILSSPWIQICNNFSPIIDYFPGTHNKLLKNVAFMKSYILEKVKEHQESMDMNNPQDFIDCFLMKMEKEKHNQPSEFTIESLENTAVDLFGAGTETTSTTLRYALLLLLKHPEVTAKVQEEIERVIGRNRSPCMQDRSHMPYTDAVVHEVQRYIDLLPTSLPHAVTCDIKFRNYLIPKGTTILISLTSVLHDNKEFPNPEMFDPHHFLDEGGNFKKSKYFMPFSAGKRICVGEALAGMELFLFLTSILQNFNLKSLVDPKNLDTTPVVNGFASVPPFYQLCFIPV

With `COc1ccc(-c2cc(Nc3ccnc(N4CCOCC4)n3)on2)cc1` [Compound 5] the “stabilization of cellular TACC3 upon temperature increase” value [1] was “considerably stabilized cellular TACC3”, the tolerability [2] was “well tolerated” and the tumor growth [2] was “significantly impaired tumor growth”. The tolerability [3] was “well tolerated”, the tumor growth [3] was “significantly impaired tumor growth” and the IC50 [4] was 2630 nM. The “stability in human liver microsomes” value [5] was “low stability”, the “stabilization of TACC3 protein in the presence of pronase” value [6] was “TACC3 protein was stabilized” and the “growth inhibition of cells at high doses” value [7] was “did not reach to 50% growth inhibition”. For the same compound, the solubility [8] was “low solubility”, the “body weight and observable toxicity” value ([9]; 100 mg/kg daily for 7 days) was “did not affect body weight” and the organ toxicity ([9]; 500 mg/kg once) was “no organ toxicity was observable”. The “loss of body weight” value ([9]; 500 mg/kg once, 24 h after drug treatment) was 10%, the “IC50 values compared with KHS101 and SPL-B” value [10] was “significantly lower IC50 values” and the “IC50 value compared to SPL-B and KHS101” value [11] was “lowest IC50 value”. The “stability in mouse liver microsomes” value [12] was “low stability”, the “metastatic growth compared to vehicle” value ([13]; 50 mg/kg daily orally) was “impair metastatic growth” and the overall survival ([13]; 50 mg/kg daily orally) was “significantly improved mice overall survival”. The median survival ([13]; 50 mg/kg every day orally, vehicle 19 days) was 28 days, the Kd [14] was 1.5 nM and the “N (number of binding sites)” value [14] was 0.704. For the same compound, the ΔH [14] was 49290 kcal/mol, the ΔS [14] was 1.65E5 cal/mol/deg and the IC50 ([15]; JIMT-1 cells, read-out: IC50) was 120 nM. The IC50 ([15]; cultured cells, in-house screening on JIMT-1, read-out: IC50, suppresses cell growth) was 190 nM.

Reference: patent US20230027854A1, “ISOXAZOLE DERIVATIVES TARGETING TACC3 AS ANTICANCER AGENTS” (A2A Pharmaceuticals, inc., priority 2019, published 2023)
